Reference: US20090149495A1, “COMPOUNDS” (priority 2005, published 2009)

How the values were obtained:
mGluR5 = experiment: MGluR5 receptor binding test ([3H]-M-MPEP displacement); set-up: species or system rat or human; conditions: radioligand [3H]-M-MPEP 2 nM; table does not say rat cortical membranes or hmGluR5a cells; read-out: mGlu5 Ki
Description: MGluR5 receptor binding was determined according to Gasparini et.al. (Bioorg. Med. Chem. Lett. 2000, 12:407-409) with modifications. Rat cerebro-cortical membrane preparation was used to determine the binding characteristics of reference compounds and novel compounds to the rat mGluR5. The A18 cell line expressing hmGluR5a (purchased from Euroscreen) was used to determine binding characteristics of the chemical compounds to the human mGluR5a receptor. As radioligand [3H]-M-MPEP (2 nM) was used. The nonspecific binding was determined in the presence of 10 μM M-MPEP.

mGluR1 = molecular target: T1, mGluR1 (Rattus norvegicus, UniProt P23385); experiment: MGluR1 receptor binding test ([3H]R214127 displacement, rat cerebellar membrane); conditions: rat cerebellar membranes; radioligand [3H]R214127 3 nM; read-out: mGlu1 Ki
T1 construct: rat cerebellar membrane preaparation was used; from tissue; host or cells: rat cerebellum (membrane preparation)
T1 sequence (P23385 19-1199): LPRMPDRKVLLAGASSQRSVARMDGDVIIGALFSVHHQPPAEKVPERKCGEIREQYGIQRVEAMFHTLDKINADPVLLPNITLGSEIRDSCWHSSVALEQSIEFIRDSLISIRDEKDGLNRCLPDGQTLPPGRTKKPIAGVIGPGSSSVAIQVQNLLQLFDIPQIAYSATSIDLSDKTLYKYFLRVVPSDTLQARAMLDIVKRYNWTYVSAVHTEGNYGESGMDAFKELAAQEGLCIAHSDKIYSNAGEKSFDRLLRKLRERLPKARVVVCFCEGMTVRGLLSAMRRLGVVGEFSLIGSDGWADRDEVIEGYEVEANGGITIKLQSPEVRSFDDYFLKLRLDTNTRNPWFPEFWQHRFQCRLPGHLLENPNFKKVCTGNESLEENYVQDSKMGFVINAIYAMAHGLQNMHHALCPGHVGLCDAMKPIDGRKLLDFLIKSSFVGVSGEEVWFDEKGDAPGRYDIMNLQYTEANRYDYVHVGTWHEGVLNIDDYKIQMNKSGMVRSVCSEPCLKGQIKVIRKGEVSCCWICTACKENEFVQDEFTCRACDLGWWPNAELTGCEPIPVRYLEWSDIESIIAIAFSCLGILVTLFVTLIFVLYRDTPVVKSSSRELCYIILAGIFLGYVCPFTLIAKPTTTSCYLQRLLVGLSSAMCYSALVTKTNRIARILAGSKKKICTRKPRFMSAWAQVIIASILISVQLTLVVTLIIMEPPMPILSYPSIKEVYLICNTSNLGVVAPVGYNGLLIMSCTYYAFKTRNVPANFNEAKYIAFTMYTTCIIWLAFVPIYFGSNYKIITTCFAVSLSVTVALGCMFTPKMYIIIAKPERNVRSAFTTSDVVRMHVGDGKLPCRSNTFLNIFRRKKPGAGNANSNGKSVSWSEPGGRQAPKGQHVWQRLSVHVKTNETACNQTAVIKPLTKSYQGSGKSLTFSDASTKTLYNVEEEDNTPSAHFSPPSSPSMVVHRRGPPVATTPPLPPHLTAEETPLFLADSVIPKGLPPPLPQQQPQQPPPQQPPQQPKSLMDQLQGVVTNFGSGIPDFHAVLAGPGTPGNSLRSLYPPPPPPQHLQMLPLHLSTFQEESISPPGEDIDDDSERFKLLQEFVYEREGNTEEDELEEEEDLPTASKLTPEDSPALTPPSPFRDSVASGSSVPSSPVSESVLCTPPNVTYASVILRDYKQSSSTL
Description: MGluR1 receptor binding tests were performed according to modified method of Lavreysen et al. (Mol.Pharm., 2003, 63, 1082). Based on the high homology between the human and rat mGluR1 receptors, rat cerebellar membrane preaparation was used to determine the binding characteristics of reference compounds and novel compounds to the rat mGluR1. As radioligand [3H]R214127 (3 nM) was used and the nonspecific binding was determined in the presence of 1 μM of R214127.
IC-50 values were determined from displacement curves by nonlinear regression analysis and were converted by equation method of Cheng and Prusoff (Biochem. Pharmacol., 1973, 22, 3099) to Ki values.

Row | Ki (mGluR5) | Ki (mGluR1) | SMILES
1 | < 500 nM | > 500 nM | O=S(=O)(c1ccc(Cl)cc1)c1sc2nc(O)ccc2c1-c1ccc(Cl)cc1 [Compound 1, 2-(4-Chloro-Benzenesulfonyl)-3-(4-Chloro-Phenyl)-7H-Thieno[2,3-b]Pyridin-6-One]
2 | < 500 nM | < 500 nM | N#Cc1cccc(S(=O)(=O)c2sc3nc(O)ccc3c2-c2ccc(Cl)cc2)c1 [Compound 2, 3-[3-(4-chloro-phenyl)-6-oxo-6,7-dihydro-thieno[2,3-b]pyridin-2-sulfonyl]-benzonitrile]
3 | < 500 nM | < 500 nM | O=C(OCc1ccc(F)cc1)c1sc2[nH]c(=O)ccc2c1-c1ccc(Cl)cc1 [Compound 3, 3-(4-chloro-phenyl)-6-oxo-6,7-dihydro-thieno[2,3-b]pyridine-2-carboxylic acid 4-fluoro-benzyl ester]
4 | > 500 nM |  | Cc1cccc(S(=O)(=O)c2sc3[nH]c(=O)ccc3c2-c2ccc(Cl)cc2)c1 [Compound 4, 3-(4-chloro-phenyl)-2-(toluene-3-sulfonyl)-7H-thieno[2,3-b]pyridin-6-one]
